This is an account of results in US8158634B2, “Compounds and compositions as inhibitors of cannabinoid receptor 1 activity” (IRM LLC, priority 2004, dated 2012).

The target of this assay is T1, human cannabinoid receptor 2 (CB2) (Homo sapiens, UniProt P34972).
T1 construct: expressed in transfected cells
Nature of the assay: CB2 in vitro assays on CHO cell membranes ([3H]-CP55940 ligand binding / GTPγS binding), Ki by Cheng-Prusoff. As to conditions: membranes of CHO cells stably expressing human CB2; EC50 converted by Cheng-Prusoff. As to the method: Homogenized membranes are prepared from CHO cell clones stably expressing a human cannabinoid receptor 1 (CB1) or human cannabinoid receptor 2 (CB2). Cells are grown and scrapped from 15 cm tissue culture plates, and then subsequently centrifuged down. Cells are washed once with cold PBS, and resuspended in <20 ml of Buffer A (20 mM HEPES, pH 7.4, 10 mM EDTA, EDTA-free complete protease inhibitor cocktail [1 tablet/25 ml]). The cell suspension is homogenized on ice, using a Polytron homogenizer at 25000 rpm at three intervals of 15 seconds each. The homogenate is first centrifuged at 2000 rpm on a tabletop low speed centrifuge for 10 minutes. The supernatant, after passing through a cell strainer, is then centrifuged at 50,000×g for 25 minutes at 4° C. The pellet is resuspended into buffer B (15% glycerol, 20 mM HEPES, pH 7.4, 0.1 mM EDTA, EDTA-free complete protease inhibitor cocktail [1 tablet/10 ml]). Protein concentration of the prep is determined using the BCA Protein Assay kit using BSA as standard. The membranes are aliquoted and kept frozen at −80° C.
[^3H]-CP55940 ligand binding assay: Solutions of test compounds ranging from 100 μM to 0.01 nM are prepared in DMSO. The desired amount of membrane prep is diluted with ice-cold assay buffer (50 mM Tris-HCl, 2.5 mM EDTA, 5 mM MgCl2, 0.05% BSA, pH 7.4) and vortexed well. […]
(In general: Binding of GTPγS marks nucleotide exchange on a G protein.)

T1 sequence (P34972 whole entry): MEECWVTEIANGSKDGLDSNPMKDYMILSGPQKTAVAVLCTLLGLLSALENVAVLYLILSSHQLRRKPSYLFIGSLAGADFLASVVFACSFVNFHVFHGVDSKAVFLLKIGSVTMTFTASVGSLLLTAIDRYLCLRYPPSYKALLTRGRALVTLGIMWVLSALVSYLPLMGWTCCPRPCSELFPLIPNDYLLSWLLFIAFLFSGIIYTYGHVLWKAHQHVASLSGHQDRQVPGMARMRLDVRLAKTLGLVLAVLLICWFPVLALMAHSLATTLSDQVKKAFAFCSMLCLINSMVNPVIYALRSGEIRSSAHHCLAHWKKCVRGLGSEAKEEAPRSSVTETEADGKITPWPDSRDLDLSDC

One may read the Ki as the dissociation constant of the complex between target and ligand, obtained from inhibition or displacement. Lower therefore signals tighter binding. `O=c1c2cnn(-c3ccccc3)c2nc(-c2ccccc2F)n1-c1ccc(Br)cc1` [Compound 19, 5-(4-Bromo-phenyl)-6-(2-fluoro-phenyl)-1-phenyl-1,5-dihydro-pyrazolo[3,4-d]pyrimidin-4-one]: the inhibitory constant (Ki) is more than 5 µM.
